Experimental data taken from paper PMC11881559 (Antimicrobial Agents and Chemotherapy, 2025).

Assay: Tolerability and safety assessment (AEs/ADRs, CTCAE 5.0)
Format: in vivo, human
Description: Safety and tolerability assessments were conducted for all participants who received at least one dose of RAY1216, either alone or in combination with ritonavir, throughout the study. The safety of all participants was evaluated on the basis of clinical symptoms, vital signs, 12-lead ECG, laboratory tests, physical examinations, and the evaluation of adverse events (AEs). All AEs were documented and graded according to the Common Terminology Criteria for Adverse Events (CTCAE, ver. 5.0). The grading scale was as follows: grade 1 (mild), grade 2 (moderate), grade 3 (severe), grade 4 (life threatening), and grade 5 (death).

[1] = Food effect, 800 mg, Fast (N = 12)
[2] = Food effect, 800 mg, Fed (N = 12)

O=C(NC1CCCC1)C(=O)[C@H](C[C@@H]1CCNC1=O)NC(=O)[C@@H]1[C@H]2CCC[C@H]2CN1C(=O)[C@@H](NC(=O)C(F)(F)F)C1CCCCC1 [RAY1216, leritrelvir]
2 (16.7) n (%): ADR, n (%) [1] | Serum creatinine elevated (ADR) [2]
3 (25.0) n (%): AE, n (%) [1]
4 (33.3) n (%): ADR, n (%) [2]
1 (8.3) n (%): Grade 2 ADRs [1] | Leukopenia (ADR) [1] | Neutrophil decreased (ADR) [1] | Grade 2 ADRs [2] | Hypertriglyceridemia (ADR) [2]
2 (33.3) n (%): ADR, n (%) (MAD, 400 mg TID (N = 6)) | AE, n (%) (MAD, 400 mg TID (N = 6)) | ADR, n (%) (SAD, 400 mg (N = 6)) | AE, n (%) (SAD, 400 mg (N = 6))
0 n (%): ALT elevated (ADR) [1] | AST elevated (ADR) [1] | Anemia (ADR) [1] | Bilirubin elevated (ADR) [1] | Diarrhea (ADR) [1] | Fatigue (ADR) [1] | Grade ≥3 AEs [1] | Hypertriglyceridemia (ADR) [1] | Hyperuricemia (ADR) [1] | Nausea (ADR) [1] | Palpitations (ADR) [1] | Serum creatinine elevated (ADR) [1] | ALT elevated (ADR) [2] | AST elevated (ADR) [2] | Anemia (ADR) [2] | Bilirubin elevated (ADR) [2] | Diarrhea (ADR) [2] | Fatigue (ADR) [2] | Grade ≥3 AEs [2] | Hyperuricemia (ADR) [2] | Leukopenia (ADR) [2] | Nausea (ADR) [2] | Neutrophil decreased (ADR) [2] | Palpitations (ADR) [2] | ALT elevated (ADR) (MAD, 400 mg TID (N = 6)) | AST elevated (ADR) (MAD, 400 mg TID (N = 6)) | Anemia (ADR) (MAD, 400 mg TID (N = 6)) | Bilirubin elevated (ADR) (MAD, 400 mg TID (N = 6)) | Diarrhea (ADR) (MAD, 400 mg TID (N = 6)) | Fatigue (ADR) (MAD, 400 mg TID (N = 6)) | Grade 2 ADRs (MAD, 400 mg TID (N = 6)) | Grade ≥3 AEs (MAD, 400 mg TID (N = 6)) | Hyperuricemia (ADR) (MAD, 400 mg TID (N = 6)) | Leukopenia (ADR) (MAD, 400 mg TID (N = 6)) | Nausea (ADR) (MAD, 400 mg TID (N = 6)) | Neutrophil decreased (ADR) (MAD, 400 mg TID (N = 6)) | Palpitations (ADR) (MAD, 400 mg TID (N = 6)) | Serum creatinine elevated (ADR) (MAD, 400 mg TID (N = 6)) | ALT elevated (ADR) (SAD, 400 mg (N = 6)) | AST elevated (ADR) (SAD, 400 mg (N = 6)) | Anemia (ADR) (SAD, 400 mg (N = 6)) | Diarrhea (ADR) (SAD, 400 mg (N = 6)) | Fatigue (ADR) (SAD, 400 mg (N = 6)) | Grade 2 ADRs (SAD, 400 mg (N = 6)) | Grade ≥3 AEs (SAD, 400 mg (N = 6)) | Hypertriglyceridemia (ADR) (SAD, 400 mg (N = 6)) | Hyperuricemia (ADR) (SAD, 400 mg (N = 6)) | Leukopenia (ADR) (SAD, 400 mg (N = 6)) | Nausea (ADR) (SAD, 400 mg (N = 6)) | Neutrophil decreased (ADR) (SAD, 400 mg (N = 6)) | Palpitations (ADR) (SAD, 400 mg (N = 6)) | ADR, n (%) (SAD, 800 mg (N = 6))
28.1%: participants reporting at least one ADR (MAD study with or without ritonavir, 9 out of 32 participants)
42%: participants who experienced at least one adverse event (AE) (37 of all 88 participants (RAY1216 or placebo))
33.3%: participants reporting at least one ADR (MAD, 400 mg TID group, two participants) | participants reporting at least one ADR (SAD, 200 mg cohort, two participants) | participants reporting at least one ADR (SAD, 400 mg cohort, two participants)
1 (16.7) n (%): Hypertriglyceridemia (ADR) (MAD, 400 mg TID (N = 6)) | Bilirubin elevated (ADR) (SAD, 400 mg (N = 6)) | Serum creatinine elevated (ADR) (SAD, 400 mg (N = 6)) | AE, n (%) (SAD, 800 mg (N = 6))
5 (41.7) n (%): AE, n (%) [2]
